Results on 48 compounds are retold here after ChEMBL document CHEMBL1137135 (Bioorg Med Chem Lett, 2004).

Bounds are passed on as bounds.

Data set [1] in a line: In vitro inhibitory activity against Factor Xa.
Data set [2] is filed under the species Rattus norvegicus. The data set can be described thus: In vitro anticoagulant activity of compound was determined in rat. It is filed as functional.
Data set [3] is described as follows: Binding affinity of compound towards Factor Xa.
The nature of data set [4]: Bioavailability in rat. It is filed as ADME, organism-based. Conditions: in vivo.
Data set [5] is described as follows: Half-life of compound was determined in rat. It is filed as ADME. Conditions: in vivo.
The nature of data set [6]: Plasma clearance of compound was determined in rat. Format: ADME, organism-based.
Data set [7] is described as follows: Vz of compound was determined in rat. It is filed as ADME, organism-based. Conditions: in vivo, read-out: Vz.

What is called IC50 is the midpoint of a concentration-inhibition curve. The low end stands for greater potency in that assay, the high end for weaker potency in that assay. Consider `COCCN(C)Cc1ccccc1-c1ccc(C(=O)N[C@H](CC(=O)Nc2ccc(Br)cn2)C(=O)N2CCCCC2)cc1`, for which it took 1.3 nM to reach half-maximal inhibition in data set [1] (IC50).
In general, Ki refers to the equilibrium dissociation constant of an inhibitor or competing ligand from its target. By bioavailability is commonly meant the share of a dose that reaches the circulation, judged against a reference dose that is usually intravenous. A higher bioavailability goes with much systemic uptake. For orientation: half-life means the time needed for the level to fall by half in the phase considered. In general, clearance refers to the rate of elimination divided by the concentration. Regarding `NS(=O)(=O)c1ccccc1-c1ccc(C(=O)NCCC(=O)Nc2ccc(Br)cn2)cc1`, the “TG 2X lag” value in data set [2] was determined as 14 µM. This compound displayed an IC50 in data set [1] of 12 nM. This compound yielded a Ki in data set [3] of 7.55 nM. Moreover, in data set [4], the bioavailability is 2.67%. Further, the half-life in data set [5] was 1.77 h. The compound also came in with a clearance in data set [6] of 35 mL/min/kg. In addition, the Vd in data set [7] turned out to be 5.4 L/kg.
In the case of `CN(C)C(=N)c1ccc(C(=O)N[C@H](CC(=O)Nc2ccc(Br)cn2)C(=O)N2CCCCC2)cc1`, the IC50 in data set [1] turned out to be 4.6 nM.
`NS(=O)(=O)c1ccccc1-c1ccc(C(=O)NCCNC(=O)c2cccc(Cl)c2)cc1` displayed an IC50 in data set [1] of 1500 nM.
Still for that read-out and setting: the figure for `NS(=O)(=O)c1ccccc1-c1ccc(C(=O)NCCNC(=O)c2ccc(Br)cc2)cc1` is 960 nM.
Turning to `NS(=O)(=O)c1ccccc1-c1ccc(C(=O)NC(CC(=O)Nc2ccc(Br)cn2)C(=O)O)cc1` (centres undefined), the “2X PT” value in data set [2] came out at 74 µM. This compound also yielded an IC50 in data set [1] of 4.37 nM. For the same compound, the Ki in data set [3] is 1.72 nM. Moreover, the bioavailability in data set [4] amounted to 4%. The half-life in data set [5] is 1 h. In addition, the clearance in data set [6] came out at 6.7 mL/min/kg. In data set [7], the Vd was 0.6 L/kg.
`NS(=O)(=O)c1ccccc1-c1ccc(C(=O)NCCNC(=O)c2ccccc2)cc1` gave an IC50 in data set [1] of over 10000 nM.
Still for that read-out and setting: the figure for `NS(=O)(=O)c1ccccc1-c1ccc(NC(=O)C(CC(=O)Nc2ccc(Br)cn2)NC(=O)Nc2ccccc2)cc1` (centres undefined) is 37 nM.
Compound `CN1CCN=C1c1ccc(C(=O)N[C@H](CC(=O)Nc2ccc(Cl)cn2)C(=O)N2CCCCC2)cc1` returned an IC50 in data set [1] of 26 nM. This IC50 and that of the compound before are within 1.5-fold of each other.
The same measure, in the same setting: the figure for `COCCN(C)Cc1ccccc1-c1ccc(C(=O)N[C@@H](CC(=O)Nc2ccc(Cl)cn2)C(=O)N2CCCCC2)cc1` is 9.3 nM; for `NS(=O)(=O)c1ccccc1-c1ccc(NC(=O)C(CC(=O)Nc2ccc(Br)cn2)NC(=O)c2ccncc2)cc1` (centres undefined) it is 43.8 nM.
Still for that read-out and setting: the value for `NS(=O)(=O)c1ccccc1-c1ccc(NC(=O)C(CC(=O)Nc2ccc(Br)cn2)NC(=O)C(F)(F)F)cc1` (centres undefined) was 200 nM.
In data set [1], `CN(C)C(=N)c1ccc(C(=O)N[C@H](CC(=O)Nc2ccc(Cl)cn2)C(=O)N2CCCCC2)cc1` returned an IC50 of 12 nM.
With `CN(C)Cc1ccccc1-c1ccc(C(=O)N[C@H](CC(=O)Nc2ccc(Cl)cn2)C(=O)N2CCCCC2)cc1`, in data set [2], the “2X PT” value was determined as 1.74 µM and the “TG 2X lag” value is 1 µM. This compound also had an IC50 in data set [1] of 1.7 nM. The compound further showed a Ki in data set [3] of 0.4 nM. The bioavailability in data set [4] turned out to be 25.9%. Further, the half-life in data set [5] was 1.18 h. This compound registered a clearance in data set [6] of 178 mL/min/kg. For the same compound, the Vd in data set [7] worked out at 14 L/kg.
`NS(=O)(=O)c1ccccc1-c1ccc(NC(=O)C(CC(=O)Nc2ccc(Br)cn2)NC(=O)C2CCCNC2)cc1` (centres undefined) registered an IC50 in data set [1] of 442 nM.
In the case of `CN(C)Cc1nccn1-c1ccc(C(=O)N[C@@H](CC(=O)Nc2ccc(Cl)cn2)C(=O)N2CCCCC2)cc1`, it took 9.2 nM to reach half-maximal inhibition in data set [1] (IC50).
Same read-out and setting: the value for `CN1CCN=C1c1ccc(C(=O)N[C@@H](CC(=O)Nc2ccc(Cl)cn2)C(=O)N2CCCCC2)cc1` was 28 nM; that for `NS(=O)(=O)c1ccccc1-c1ccc(NC(=O)CCC(=O)Nc2ccc(Br)cn2)cc1` was 20 nM.
Consider `NS(=O)(=O)c1ccccc1-c1ccc(NC(=O)CCNC(=O)c2ccc(Cl)s2)cc1`, for which the IC50 in data set [1] was 130 nM.
Same read-out and setting: the figure for `NS(=O)(=O)c1ccccc1-c1ccc(NC(=O)CCC(=O)Nc2ccc(Cl)cc2)cc1` is 12 nM.
In data set [1], `O=C(C[C@@H](NC(=O)c1ccc(-c2ccccc2CN2CCCC2)cc1)C(=O)N1CCCCC1)Nc1ccc(Br)cn1` registered an IC50 of 1 nM.
The same measure, in the same setting: the figure for `CN1CCN=C1c1ccc(C(=O)N[C@H](CC(=O)Nc2ccc(Br)cn2)C(=O)N2CCCCC2)cc1` is 8.2 nM; for `NCC(=O)NC(CC(=O)Nc1ccc(Br)cn1)C(=O)Nc1ccc(-c2ccccc2S(N)(=O)=O)cc1` (centres undefined) it is 150 nM; for `O=C(C[C@H](NC(=O)c1ccc(-c2ccccc2CN2CCCC2)cc1)C(=O)N1CCCCC1)Nc1ccc(Cl)cn1` it is 2.7 nM.
Same read-out and setting: the figure for `O=C(C[C@@H](NC(=O)c1ccc(-c2ccccc2CN2CCCC2)cc1)C(=O)N1CCCCC1)Nc1ccc(Cl)cn1` is 2 nM; for `CN(C)Cc1nccn1-c1ccc(C(=O)N[C@@H](CC(=O)Nc2ccc(Br)cn2)C(=O)N2CCCCC2)cc1` it is 330 nM.
Same read-out and setting: the value for `NS(=O)(=O)c1ccccc1-c1ccc(NC(=O)C(CC(=O)Nc2ccc(Br)cn2)NC(=O)C2CCNCC2)cc1` (centres undefined) was 194 nM; that for `CN(C)Cc1nccn1-c1ccc(C(=O)N[C@H](CC(=O)Nc2ccc(Br)cn2)C(=O)N2CCCCC2)cc1` was 3.1 nM; that for `O=C(C[C@H](NC(=O)c1ccc(-c2ccccc2CN2CCOCC2)cc1)C(=O)N1CCCCC1)Nc1ccc(Cl)cn1` was 3.6 nM.
On to `O=C(C[C@H](NC(=O)c1ccc(-c2ccccc2CN2CCOCC2)cc1)C(=O)N1CCCCC1)Nc1ccc(Br)cn1`, for which the IC50 in data set [1] is 290 nM.
As for `NS(=O)(=O)c1ccccc1-c1ccc(C(=O)NC(CC(=O)Nc2ccc(Br)cn2)C(=O)N2CCCCC2)cc1` (centres undefined), in data set [2], the “2X PT” value turned out to be 7 µM and the “TG 2X lag” value was 4.6 µM. In data set [1], the IC50 is 7.6 nM. The compound also had a Ki in data set [3] of 1.36 nM. In addition, the bioavailability in data set [4] is 2.7%. Besides, the half-life in data set [5] is 1.35 h. For the same compound, in data set [6], the clearance worked out at 50.6 mL/min/kg. Further, the Vd in data set [7] is 5.9 L/kg.
For `O=C(C[C@@H](NC(=O)c1ccc(-c2ccccc2CN2CCOCC2)cc1)C(=O)N1CCCCC1)Nc1ccc(Cl)cn1`, in data set [1], the IC50 stood at 1.8 nM.
For the compound `NS(=O)(=O)c1ccccc1-c1ccc(NC(=O)CCC(=O)Nc2ccc(Br)cc2)cc1`, inhibition in data set [1] was half-maximal at 65 nM (IC50).
Still for that read-out and setting: the value for `NS(=O)(=O)c1ccccc1-c1ccc(NC(=O)CCC(=O)Nc2ccc(Cl)cn2)cc1` was 37 nM.
Regarding `CN(C)Cc1ccccc1-c1ccc(C(=O)N[C@@H](CC(=O)Nc2ccc(Cl)cn2)C(=O)N2CCCCC2)cc1`, in data set [2], the “2X PT” value stood at 3.6 µM and the “TG 2X lag” value is 0.96 µM. In data set [1], the IC50 came to 2.9 nM. In data set [3], this compound had a Ki of 1 nM. The bioavailability in data set [4] was found to be 7.9%. The half-life in data set [5] is 6.1 h. Besides, the clearance in data set [6] is 124 mL/min/kg. Besides, in data set [7], the Vd worked out at 59.2 L/kg.
The compound `NS(=O)(=O)c1ccccc1-c1ccc(C(=O)NCCNC(=O)c2ccc(Cl)s2)cc1` displayed an IC50 in data set [1] of 5.7 nM.
As for `O=C(C[C@@H](NC(=O)c1ccc(-c2ccccc2CN2CCOCC2)cc1)C(=O)N1CCCCC1)Nc1ccc(Br)cn1`, it took 1.1 nM to reach half-maximal inhibition in data set [1] (IC50).
`COCCN(C)Cc1ccccc1-c1ccc(C(=O)N[C@H](CC(=O)Nc2ccc(Cl)cn2)C(=O)N2CCCCC2)cc1` registered an IC50 in data set [1] of 4.8 nM.
The same measure, in the same setting: the value for `CN(C)CC(=O)NC(CC(=O)Nc1ccc(Br)cn1)C(=O)Nc1ccc(-c2ccccc2S(N)(=O)=O)cc1` (centres undefined) was 215 nM; that for `COCCN(C)Cc1ccccc1-c1ccc(C(=O)N[C@@H](CC(=O)Nc2ccc(Br)cn2)C(=O)N2CCCCC2)cc1` was 940 nM; that for `CN(C)Cc1nccn1-c1ccc(C(=O)N[C@H](CC(=O)Nc2ccc(Cl)cn2)C(=O)N2CCCCC2)cc1` was 7.6 nM.
The same measure, in the same setting: the value for `COc1ccc(C(=O)NCCNC(=O)c2ccc(-c3ccccc3S(N)(=O)=O)cc2)cc1` was 2600 nM; that for `NS(=O)(=O)c1ccccc1-c1ccc(NC(=O)C(CC(=O)Nc2ccc(Br)cn2)NC(=O)c2cccnc2)cc1` (centres undefined) was 47.2 nM.
In the case of `CN(C)Cc1ccccc1-c1ccc(C(=O)N[C@H](CC(=O)Nc2ccc(Br)cn2)C(=O)N2CCCCC2)cc1`, in data set [2], the “2X PT” value worked out at 1.98 µM and the “TG 2X lag” value is 0.42 µM. The IC50 in data set [1] is 0.65 nM. Also, the Ki in data set [3] was found to be 0.14 nM.
As to `O=C(C[C@H](NC(=O)c1ccc(-c2ccccc2CN2CCCC2)cc1)C(=O)N1CCCCC1)Nc1ccc(Br)cn1`, it took 230 nM to reach half-maximal inhibition in data set [1] (IC50).
The compound `CN(C)C(=N)c1ccc(C(=O)N[C@@H](CC(=O)Nc2ccc(Cl)cn2)C(=O)N2CCCCC2)cc1` had an IC50 in data set [1] of 24 nM.
Still for that read-out and setting: the figure for `NS(=O)(=O)c1ccccc1-c1ccc(NC(=O)/C=C/C(=O)Nc2ccc(Cl)cc2)cc1` (stereo in doubt; cis) is 67 nM; for `NS(=O)(=O)c1ccccc1-c1ccc(NC(=O)/C=C/C(=O)Nc2ccc(Cl)cc2)cc1` (stereo in doubt; trans) it is over 10000 nM.
